The results in this text go back to PMC10115881, “Disrupting the α-synuclein-ESCRT interaction with a peptide inhibitor mitigates neurodegeneration in preclinical models of Parkinson’s disease” (Nature Communications, 2023).

Format in all cases: cell-based, human
Experiment [1] deals with A53T a-syn expressing HEK293 cells. As to the kind of experiment: Cell Titer-Glo cell viability, A53T a-syn expressing cells. The following applies: for cell viability effect of peptides: A53T a-syn, Supp Figure 1A; for Cell viability: A53T, MG132 10 μM, 72 h; for Effect of MIM motif peptides on cell viability in A53T a-syn expressing cells: Supp Figure 1H. Here is the method:
(§1) Oligonucleotides encoding the specific peptides were synthesized and individually cloned into the pLJM1 nGFP lentiviral vector. HEK293T cells were infected with individual constructs, and cell viability was assessed using Cell Titer-Glo luminescent assay (Promega) at 72 h post infection.
(§2) Cells were trypsinized from subconfluent cultures as described earlier, suspended in culture media, and then seeded into triplicate wells of a 96-well plate (100 µl/well) at a density of 1.5 × 10^4 cells per well with standard culture conditions of 5% CO2 at 37 °C. Cells were infected with lentivirus expressing peptide at a MOI of 5 for 72 h or transfected with plasmid for 72 h. Cell Titer-Glo reagent was added to each well (30 µL), according to the manufacturer’s protocol and […].

For experiment [2], the system named is A53T a-syn. Nature of the experiment: A53T a-syn protein level in HEK293 cells by immunoblot. How it is done:
Infected or transfected cells were scraped from six-well dishes and lysed with lysis buffer (50 mM Tris-HCl pH 7.4, 1% Nonidet P-40, 150 mM NaCl, 1 mM EDTA, 1× protease inhibitor mixture (Sigma)) for 30 min at 4 °C. The insoluble pellet was removed following a 10,000 rpm spin for 5 min at 4 °C. Lysates were analyzed by SDS-PAGE/immunoblot using 4–20% Mini-PROTEAN Tris-glycine gels (Bio-Rad), transferred to polyvinylidene fluoride (PVDF) membranes, and blocked in 5% milk containing PBS-Tween-20 (0.1%) for 1 h. PVDF membranes were then incubated with specified primary antibodies followed by incubation with horseradish peroxidase-conjugated secondary antibodies (anti-mouse HRP-linked, Cell Signaling, catalog #7076, 1:5000; anti-rabbit HRP-linked, Cell Signaling, catalog #7074, 1:5000) and detected using enhanced chemiluminescence (GE Healthcare). Anti-a-syn antibody (clone 42) was obtained from BD Biosciences (catalog #610787, 1:1000). Anti-LAMP1 antibody was obtained from Abcam (catalog #ab24170, 1:500). Anti-beta-actin antibody was obtained from Cell Signaling (13E5) (catalog #4970, 1:1000). Anti-CD63 antibody was obtained from R&D Systems (catalog #MAB50482-SP, 1:1000).

For experiment [3], the system named is WT a-syn oligomers. As to the kind of experiment: Luciferase PCA of WT a-syn oligomers. The following applies: for Oligomers %: WT oligomers, luciferase activity; for Effect on WT a-syn oligomers: luciferase PCA. Here is the method:
as §1
(§3) Tet-off HEK293 cells stably expressing split luciferase-a-syn constructs and tet-off parent HEK293 cell lines were maintained in DMEM supplemented with 10% FBS and 1% pen/strep/glutamine. […] Cells were trypsinized from subconfluent culture and seeded in a 96-well plate at a density of 15,000 cells per well. Cells were incubated overnight at 37 °C in 5% CO2. Cells were transfected with GFP-peptide plasmids. After 6 h of incubation, 20 µL of cell medium was transferred to a black flat-bottomed 96-well plate. Fifty microliters of Working solution (Pierce Gaussia-Firefly Luciferase Dual Assay Kit, Thermo Scientific, 16181) were added into each well containing cell medium. Immediately after adding the reagent, samples were read using a luminometer with a 480 nm filter.

The test system of experiment [4] is WT a-syn expressing HEK293 cells. As to the kind of experiment: Cell Titer-Glo cell viability, WT a-syn expressing cells.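 On cell viability effect of peptides: measured without MG132 proteasome inhibitor.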 As to conditions: WT alpha-synuclein; for Cell viability: MG132 10 μM, 72 h; for cell viability effect of peptides: Supp Figure 1A. Here is the method:
as §1, §2
(In general: Cellular ATP, detected with luciferase, serves as a proxy for viable cell number.)

In experiment [5] the test system is Parent HEK293 cells. As to the kind of experiment: Cell Titer-Glo cell viability, parent cells.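 On cell viability effect of peptides: measured without MG132 proteasome inhibitor.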 The following applies: for Cell viability: MG132 10 μM, 72 h; for cell viability effect of peptides: Supp Figure 1A. How it is done: as §1, §2
The subject of experiment [6] is A53T a-syn oligomers. Nature of the experiment: Luciferase PCA of A53T a-syn oligomers. As to conditions: for Effect on A53T a-syn oligomers: luciferase PCA, n=3. How it is done:
as §1, §3

Experiment [7] concerns A53T a-syn oligomers. As to the kind of experiment: Split-YFP PCA/FACS screen of A53T a-syn oligomers. The source says:
We used a lentiviral library of 50,549 7-mer peptides enriched in PPI motifs[13] on a green fluorescent protein (GFP) scaffold (Fig. 1A). We infected cells in a pooled format and the amino acid sequence of each peptide served as its own barcode. By using a low multiplicity of infection followed by puromycin selection, each infected cell expressed one unique GFP-peptide. We screened for peptides that reduced a-syn-mediated cytotoxicity or a-syn oligomers in parallel (Fig. 1A). To cause cytotoxicity relevant to PD, we induced proteostatic stress in HEK293 cells by inhibiting the proteasome with MG132 and overexpressing human WT a-syn associated with idiopathic PD in one screen or the more toxic mutant A53T a-syn associated with familial PD in a second screen. This combination of a-syn overexpression and pharmacological proteasome inhibition led to death of most cells, with only those that expressed a protective peptide surviving. By extracting genomic DNA from the surviving cells and amplifying the peptide coding sequences, we identified the protective peptides (Fig. 1A). To detect a-syn oligomers, we used a protein fragment complementation assay (PCA) of a-syn oligomerization in HEK293 cells. In this assay, human A53T a-syn was fused to either the C- or N-terminal half of yellow fluorescent protein (YFP). No fluorescence is detectable while a-syn exists in monomers but, when a-syn oligomerizes, the two halves of YFP come in close enough proximity to form a functional, spontaneously fluorescent protein. […] Our screens yielded 10 hits (Table S1). The hit with the most reads (i.e., the most abundant) was the same peptide in all screens: IPIQLKA (named PDpep1) (Table S1). We validated the cytoprotective effects of PDpep1 in HEK293 cells overexpressing WT or A53T a-syn (Figs. 1B, S1A), as well as its ability to reduce WT or A53T a-syn oligomers in a luciferase-based PCA[18]–[20] compared to a scrambled control peptide (Figs. 1C, S1B).
HEK293T cells (ATCC, CRL-3216) were maintained in DMEM supplemented with 10% FBS and 1% pen/strep/glutamine, and the appropriate selection antibiotics when required. Lentiviruses were made in a 15 cm dish format by transfecting packaging cells (HEK293T) with a three-plasmid system (expression vector, psPAX2 and pMD2.G) and using Polyjet DNA transfection reagent (FroggaBio, SL100688.1). Viral transduction of HEK293T cells were performed with a multiplicity of infection (MOI) of 0.3. Infected cells were selected in puromycin-containing medium to eliminate uninfected cells and three aliquots of cells were collected for sampling of the initial (T0) cell population. Cells were treated with MG132 at concentrations of 0, 10, 25, or 50 µM. For the cell viability screen, surviving cells were collected and gDNA was extracted for identification of peptide inhibitors of cell toxicity. For the inhibition of a-syn aggregation screen, a protein fragment complementation assay (PCA) was used by transfecting cells with split YFP-a-syn constructs following stable expression of the peptides. Cells were sorted based on their YFP fluorescence intensities with a FACSVantage SE cell sorter (BD Bioscience) and gDNA was extracted for identification of peptides.
Cells were harvested by trypsin treatment and centrifuged at 500 × g for 5 min. The pellet was resuspended in ice-cold PBS and centrifuged again. The pellet was then resuspended at a concentration of 4 × 10^6 cells/ml in the sorting buffer, which is PBS containing 100 Kunitz DNase I/ml, 10 μg/ml propidium iodide (Sigma), and 2% FBS. The cells were then sent through a 40 μm filter to remove large clumps and loaded into either a FACScan Flow Cytometer (BD Bioscience) for cell analysis or a FACSVantage SE cell sorter (BD Bioscience) for cell sorting. The cells with positive propidium iodide staining (i.e., dead cells) were first eliminated from the analysis. […]

For “CHMP2B 1-199: truncated version of CHMP2B (amino acids 1–199), in which the MIM is removed”, in experiment [1] (A53T a-syn cells), the “Effect on cell survival/viability” value was “rescues toxicity”. In addition, in experiment [2], the “Effect on A53T a-syn protein level” value is recorded as “reduction in a-syn”.
On to EIERQLKALG [PDpep1.2], for which the Oligomers % in experiment [3] (column 1) turned out to be 104.991%; in experiment [3] (column 2) it was 81.7556%; in experiment [3] (column 3), 72.2892%; in experiment [3] (column 4), 74.8709%; in experiment [3] (column 5), 62.3924%. The “Effect on WT a-syn oligomers” value in experiment [3] was “significant reduction in a-syn oligomers”. Further, the “cell viability effect of peptides” value in experiment [1] (replicate 1) was found to be 14600; in experiment [1] (replicate 2) it was 15600; in experiment [1] (replicate 3), 14800; in experiment [4] (replicate 1) it was 13200; in experiment [4] (replicate 2), 13400; in experiment [4] (replicate 3) it was 13100. Moreover, the figures for the “cell viability effect of peptides” value in experiment [5] (replicate 1), in experiment [5] (replicate 2) and in experiment [5] (replicate 3) were 12600, 12500 and 13000, respectively. The Cell viability in experiment [1] (replicate 1) was 7500; in experiment [1] (replicate 2), 6200; in experiment [1] (replicate 3) it was 6500; in experiment [4] (replicate 1), 4000; in experiment [4] (replicate 2), 4200; in experiment [4] (replicate 3), 4500. Also, the Cell viability is 4500 in experiment [5] (replicate 1), 5400 in experiment [5] (replicate 2) and 4100 in experiment [5] (replicate 3). Also, the “Effect of MIM motif peptides on cell viability in A53T a-syn expressing cells” value was 6674 in experiment [1] (replicate 1), 6850 in experiment [1] (replicate 2) and 6527 in experiment [1] (replicate 3). For the same substance, the “Effect on A53T a-syn oligomers” value in experiment [6] was “significant reduction in A53T a-syn oligomers”. Also, the figures for the “A53T a-syn oligomers as measured by luciferase activity” value in experiment [6] (replicate 1), in experiment [6] (replicate 2) and in experiment [6] (replicate 3) were 251502, 281836 and 251716, respectively.
IERQLKA [PDpep1.1]: the Oligomers % is 106.713% in experiment [3] (column 1); 81.3253% in experiment [3] (column 2); 66.2651% in experiment [3] (column 3); 77.4527% in experiment [3] (column 4); 64.5439% in experiment [3] (column 5). Further, in experiment [3], the “Effect on WT a-syn oligomers” value is on record as “significant reduction in a-syn oligomers”. Further, the “cell viability effect of peptides” value turned out to be 13600 in experiment [1] (replicate 1); 13400 in experiment [1] (replicate 2); 12400 in experiment [1] (replicate 3); 13800 in experiment [4] (replicate 1); 13400 in experiment [4] (replicate 2); 12900 in experiment [4] (replicate 3). In addition, the “cell viability effect of peptides” value is on record as 12600 in experiment [5] (replicate 1), 12000 in experiment [5] (replicate 2) and 12700 in experiment [5] (replicate 3). Further, the Cell viability in experiment [1] (replicate 1) was found to be 6400; in experiment [1] (replicate 2), 6200; in experiment [1] (replicate 3) it was 6100; in experiment [4] (replicate 1) it was 4800; in experiment [4] (replicate 2) it was 4300; in experiment [4] (replicate 3), 4100. Further, the Cell viability in experiment [5] (replicate 1) amounted to 3550; in experiment [5] (replicate 2) it was 3700; in experiment [5] (replicate 3), 3800. Besides, the “Effect of MIM motif peptides on cell viability in A53T a-syn expressing cells” value in experiment [1] (replicate 1) came out at 6738; in experiment [1] (replicate 2), 6300; in experiment [1] (replicate 3), 6152. Moreover, in experiment [6], the “Effect on A53T a-syn oligomers” value is “significant reduction in A53T a-syn oligomers”. Moreover, the entries for the “A53T a-syn oligomers as measured by luciferase activity” value in experiment [6] (replicate 1), in experiment [6] (replicate 2) and in experiment [6] (replicate 3) were 261554, 321472 and 271592, respectively.
“LPSKIYK [library 7-mer, oligomers screen]”: in experiment [7], the “Reads GFP High” value came to 1, the “Reads GFP Inter” value is reported as 0, the “Reads GFP Neg” value was found to be 57 and the “Reads Ratio” value is 29.53.
On the same counts, the results for “ECHTKIR [library 7-mer, oligomers screen]” are 1, 0, 76 and 39.21.
